Assay results as given in the kinase profiling compilation of Christmann-Franck et al. (2016).

Key:
Experiment in all cases: radiometric filter-binding kinase assay, Kinase HotSpot
Conditions in all cases: compound 0.5 µM; ATP 10 µM
AKT2 (human) = AKT2 (human) (UniProt P31751)
CAMK1G (human) = CAMK1G (human) (UniProt Q96NX5)
CAMK2A (human) = CAMK2A (human) (UniProt Q9UQM7)
CAMK2B (human) = CAMK2B (human) (UniProt Q13554)
CAMK2D (human) = CAMK2D (human) (UniProt Q13557)
CDK2 CCNA2 (human) = CDK2 CCNA2 (human) (UniProt P24941+P20248)
Chain of CDK2 CCNA2 (human) (P20248 whole entry, looked up, other chains not shown): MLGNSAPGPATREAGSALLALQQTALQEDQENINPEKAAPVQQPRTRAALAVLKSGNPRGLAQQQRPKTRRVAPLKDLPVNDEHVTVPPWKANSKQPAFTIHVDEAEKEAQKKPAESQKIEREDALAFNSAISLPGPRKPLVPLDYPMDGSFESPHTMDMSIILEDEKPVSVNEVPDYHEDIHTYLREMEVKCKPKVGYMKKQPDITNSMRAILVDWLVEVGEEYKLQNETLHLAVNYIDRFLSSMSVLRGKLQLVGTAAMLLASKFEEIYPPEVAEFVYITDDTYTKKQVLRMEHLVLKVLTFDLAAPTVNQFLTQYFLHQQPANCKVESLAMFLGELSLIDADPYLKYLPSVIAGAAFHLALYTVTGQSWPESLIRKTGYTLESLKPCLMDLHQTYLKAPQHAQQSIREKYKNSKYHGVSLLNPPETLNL

CDK3 CCNE1 (human) = CDK3 CCNE1 (human) (UniProt Q00526+P24864)
CDK4 CCND1 (human) = CDK4 CCND1 (human) (UniProt P24385+P11802)
CDK6 CCND3 (human) = CDK6 CCND3 (human) (UniProt P30281+Q00534)
Chain of CDK6 CCND3 (human) (P30281 whole entry, looked up): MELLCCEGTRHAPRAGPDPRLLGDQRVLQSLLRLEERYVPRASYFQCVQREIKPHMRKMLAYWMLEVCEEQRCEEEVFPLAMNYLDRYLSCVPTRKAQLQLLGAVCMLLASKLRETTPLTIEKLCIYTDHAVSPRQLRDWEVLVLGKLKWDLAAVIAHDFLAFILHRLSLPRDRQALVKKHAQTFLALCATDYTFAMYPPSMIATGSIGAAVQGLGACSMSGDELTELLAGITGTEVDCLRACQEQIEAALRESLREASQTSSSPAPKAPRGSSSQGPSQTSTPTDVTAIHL
Chain of CDK6 CCND3 (human) (Q00534 whole entry, looked up): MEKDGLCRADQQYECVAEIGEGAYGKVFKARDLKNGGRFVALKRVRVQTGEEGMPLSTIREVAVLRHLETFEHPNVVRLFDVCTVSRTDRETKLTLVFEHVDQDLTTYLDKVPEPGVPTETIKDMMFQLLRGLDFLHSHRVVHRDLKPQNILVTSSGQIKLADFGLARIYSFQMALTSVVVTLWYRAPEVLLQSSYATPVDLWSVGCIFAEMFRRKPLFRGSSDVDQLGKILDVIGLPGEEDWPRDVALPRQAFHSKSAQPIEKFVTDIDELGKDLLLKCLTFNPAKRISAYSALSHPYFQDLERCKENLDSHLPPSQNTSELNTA

CHEK1 (human) = CHEK1 (human) (UniProt O14757)
Chain of CHEK1 (human) (O14757 whole entry, looked up): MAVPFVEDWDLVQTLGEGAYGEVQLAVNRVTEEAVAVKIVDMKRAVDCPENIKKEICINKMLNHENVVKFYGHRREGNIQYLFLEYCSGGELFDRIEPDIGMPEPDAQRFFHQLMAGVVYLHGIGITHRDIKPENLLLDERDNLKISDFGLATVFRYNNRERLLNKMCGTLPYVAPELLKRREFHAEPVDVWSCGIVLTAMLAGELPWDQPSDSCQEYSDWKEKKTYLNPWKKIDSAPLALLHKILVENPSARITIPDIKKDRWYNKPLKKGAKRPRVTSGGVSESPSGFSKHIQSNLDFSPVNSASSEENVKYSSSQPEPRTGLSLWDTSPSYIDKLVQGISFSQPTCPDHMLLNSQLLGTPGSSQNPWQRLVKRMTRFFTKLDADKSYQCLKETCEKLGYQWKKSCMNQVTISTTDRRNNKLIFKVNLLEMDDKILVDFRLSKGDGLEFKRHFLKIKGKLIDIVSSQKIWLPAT

CLK1 (human) = CLK1 (human) (UniProt P49759)
DAPK1 (human) = DAPK1 (human) (UniProt P53355)
DAPK2 (human) = DAPK2 (human) (UniProt Q9UIK4)
EPHB2 (human) = EPHB2 (human) (UniProt P29323)
FLT3 (human) = FLT3 (human) (UniProt P36888)
HCK (human) = HCK (human) (UniProt P08631)
IKBKB (human) = IKBKB (human) (UniProt O14920)
INSRR (human) = INSRR (human) (UniProt P14616)
IRAK4 (human) = IRAK4 (human) (UniProt Q9NWZ3)
JAK2 JH1 JH2 (human) = JAK2 JH1 JH2 (human) (UniProt O60674)
MAP3K9 (human) = MAP3K9 (human) (UniProt P80192)
MKNK2 (human) = MKNK2 (human) (UniProt Q9HBH9)
PAK2 (human) = PAK2 (human) (UniProt Q13177)
PAK7 (human) = PAK7 (human) (UniProt Q9P286)
PDGFRA (human) = PDGFRA (human) (UniProt P16234)
PRKACA (human) = PRKACA (human) (UniProt P17612)
PRKCA (human) = PRKCA (human) (UniProt P17252)
PRKCB2 (human) = PRKCB2 (human) (UniProt P05771)
Chain of PRKCB2 (human) (P05771 whole entry, looked up): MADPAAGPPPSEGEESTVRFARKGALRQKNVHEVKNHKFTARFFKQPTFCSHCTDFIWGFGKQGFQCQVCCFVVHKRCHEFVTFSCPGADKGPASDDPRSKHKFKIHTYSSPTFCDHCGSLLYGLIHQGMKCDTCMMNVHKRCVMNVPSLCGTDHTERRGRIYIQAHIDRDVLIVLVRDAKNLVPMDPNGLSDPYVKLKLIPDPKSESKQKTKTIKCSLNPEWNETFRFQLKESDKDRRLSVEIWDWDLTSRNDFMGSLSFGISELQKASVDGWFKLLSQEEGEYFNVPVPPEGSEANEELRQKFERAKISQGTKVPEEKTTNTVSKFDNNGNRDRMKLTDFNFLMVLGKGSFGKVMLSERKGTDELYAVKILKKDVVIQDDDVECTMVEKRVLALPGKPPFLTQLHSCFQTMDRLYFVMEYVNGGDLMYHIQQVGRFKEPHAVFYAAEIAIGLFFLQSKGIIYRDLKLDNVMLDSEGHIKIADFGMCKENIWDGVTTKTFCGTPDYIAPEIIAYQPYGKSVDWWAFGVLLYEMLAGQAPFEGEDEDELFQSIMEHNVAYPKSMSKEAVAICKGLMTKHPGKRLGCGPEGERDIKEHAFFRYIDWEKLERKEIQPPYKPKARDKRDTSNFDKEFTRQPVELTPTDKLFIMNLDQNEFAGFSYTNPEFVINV

PRKG2 (human) = PRKG2 (human) (UniProt Q13237)
PRKX (human) = PRKX (human) (UniProt P51817)
ROCK1 (human) = ROCK1 (human) (UniProt Q13464)
SLK (human) = SLK (human) (UniProt Q9H2G2)
Chain of SLK (human) (Q9H2G2 whole entry, looked up): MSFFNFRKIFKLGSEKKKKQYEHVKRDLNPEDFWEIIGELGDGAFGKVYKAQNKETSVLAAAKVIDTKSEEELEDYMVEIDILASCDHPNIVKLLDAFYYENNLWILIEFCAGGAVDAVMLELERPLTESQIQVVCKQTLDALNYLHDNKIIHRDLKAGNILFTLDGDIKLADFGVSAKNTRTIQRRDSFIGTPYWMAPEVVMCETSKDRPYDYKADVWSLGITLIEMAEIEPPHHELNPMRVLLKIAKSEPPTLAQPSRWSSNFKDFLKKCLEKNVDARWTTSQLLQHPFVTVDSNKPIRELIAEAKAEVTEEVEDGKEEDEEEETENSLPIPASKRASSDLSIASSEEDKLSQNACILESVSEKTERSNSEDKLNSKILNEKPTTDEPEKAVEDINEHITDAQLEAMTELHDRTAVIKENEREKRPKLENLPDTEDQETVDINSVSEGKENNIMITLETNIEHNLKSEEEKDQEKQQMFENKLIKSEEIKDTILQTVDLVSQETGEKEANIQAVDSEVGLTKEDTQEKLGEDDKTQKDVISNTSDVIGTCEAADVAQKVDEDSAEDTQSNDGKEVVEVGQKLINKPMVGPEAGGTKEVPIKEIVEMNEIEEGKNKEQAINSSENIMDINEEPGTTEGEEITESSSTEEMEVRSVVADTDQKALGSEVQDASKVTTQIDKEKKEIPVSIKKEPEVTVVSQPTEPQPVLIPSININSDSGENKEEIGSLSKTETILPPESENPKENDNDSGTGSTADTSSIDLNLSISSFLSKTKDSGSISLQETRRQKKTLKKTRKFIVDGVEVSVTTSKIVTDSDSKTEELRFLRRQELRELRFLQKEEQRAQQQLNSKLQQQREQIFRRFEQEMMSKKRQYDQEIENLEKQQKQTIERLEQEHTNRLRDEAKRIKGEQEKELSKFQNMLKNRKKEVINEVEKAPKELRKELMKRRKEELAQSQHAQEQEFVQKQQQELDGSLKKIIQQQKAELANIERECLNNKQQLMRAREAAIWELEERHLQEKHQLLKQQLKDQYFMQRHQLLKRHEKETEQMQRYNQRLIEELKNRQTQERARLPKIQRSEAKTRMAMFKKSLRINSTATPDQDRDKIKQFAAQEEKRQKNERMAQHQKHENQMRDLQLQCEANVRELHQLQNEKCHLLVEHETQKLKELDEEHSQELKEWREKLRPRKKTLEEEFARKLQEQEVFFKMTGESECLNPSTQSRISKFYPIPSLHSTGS

STK10 (human) = STK10 (human) (UniProt O94804)
STK11 (human) = STK11 (human) (UniProt Q15831)
STK3 (human) = STK3 (human) (UniProt Q13188)
SYK (human) = SYK (human) (UniProt P43405)
TAOK3 (human) = TAOK3 (human) (UniProt Q9H2K8)
TBK1 (human) = TBK1 (human) (UniProt Q9UHD2)
TGFBR1 (human) = TGFBR1 (human) (UniProt P36897)
TGFBR2 (human) = TGFBR2 (human) (UniProt P37173)
TSSK2 (human) = TSSK2 (human) (UniProt Q96PF2)
TYRO3 (human) = TYRO3 (human) (UniProt Q06418)
Chain of TYRO3 (human) (Q06418 whole entry, looked up): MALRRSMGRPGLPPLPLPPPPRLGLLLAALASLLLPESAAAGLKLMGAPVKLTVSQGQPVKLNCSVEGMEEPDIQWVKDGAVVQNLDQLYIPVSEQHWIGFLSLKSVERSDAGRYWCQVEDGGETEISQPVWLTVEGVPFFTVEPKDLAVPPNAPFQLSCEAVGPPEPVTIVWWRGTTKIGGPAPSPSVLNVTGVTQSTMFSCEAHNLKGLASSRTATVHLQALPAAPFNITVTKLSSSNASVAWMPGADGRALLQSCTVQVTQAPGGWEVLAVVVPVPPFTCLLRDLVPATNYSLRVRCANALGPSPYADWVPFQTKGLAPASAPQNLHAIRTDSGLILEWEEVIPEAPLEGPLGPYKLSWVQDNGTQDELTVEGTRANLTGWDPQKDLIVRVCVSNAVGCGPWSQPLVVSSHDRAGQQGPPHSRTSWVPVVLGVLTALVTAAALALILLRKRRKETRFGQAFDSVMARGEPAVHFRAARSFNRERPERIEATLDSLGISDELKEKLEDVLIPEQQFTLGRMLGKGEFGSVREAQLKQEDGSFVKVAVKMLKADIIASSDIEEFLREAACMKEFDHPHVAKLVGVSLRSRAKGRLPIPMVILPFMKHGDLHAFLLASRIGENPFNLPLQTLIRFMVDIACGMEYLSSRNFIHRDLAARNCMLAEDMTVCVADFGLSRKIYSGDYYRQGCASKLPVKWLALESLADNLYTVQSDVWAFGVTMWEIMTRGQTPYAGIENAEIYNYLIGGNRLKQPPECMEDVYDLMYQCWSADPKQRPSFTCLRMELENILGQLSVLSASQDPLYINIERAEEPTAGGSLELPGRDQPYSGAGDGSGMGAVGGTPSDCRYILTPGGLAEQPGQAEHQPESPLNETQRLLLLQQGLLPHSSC

CC(C)(C)c1nc2c3ccc(F)cc3c3c(=O)[nH]ccc3c2[nH]1
residual activity (AKT2 (human)): 89.8%
residual activity (CAMK1G (human)): 95.3%
residual activity (CAMK2A (human)): 35.1%
residual activity (CAMK2B (human)): 73.4%
residual activity (CAMK2D (human)): 59.4%
residual activity (CDK2 CCNA2 (human)): 86.2%
residual activity (CDK3 CCNE1 (human)): 92.1%
residual activity (CDK4 CCND1 (human)): 85.6%
residual activity (CDK6 CCND3 (human)): 87.8%
residual activity (CHEK1 (human)): 22.9%
residual activity (CLK1 (human)): 81.6%
residual activity (DAPK1 (human)): 3.03%
residual activity (DAPK2 (human)): 18%
residual activity (EPHB2 (human)): 92.8%
residual activity (FLT3 (human)): 13.6%
residual activity (HCK (human)): 84.8%
residual activity (IKBKB (human)): 52.1%
residual activity (INSRR (human)): 75.2%
residual activity (IRAK4 (human)): 96.3%
residual activity (JAK2 JH1 JH2 (human)): 1.37%
residual activity (MAP3K9 (human)): 20.4%
residual activity (MKNK2 (human)): 62%
residual activity (PAK2 (human)): 88.8%
residual activity (PAK7 (human)): 90.5%
residual activity (PDGFRA (human)): 92.1%
residual activity (PRKACA (human)): 97.9%
residual activity (PRKCA (human)): 65.6%
residual activity (PRKCB2 (human)): 90.6%
residual activity (PRKG2 (human)): 14.3%
residual activity (PRKX (human)): 79.2%
residual activity (ROCK1 (human)): 74.9%
residual activity (SLK (human)): 91.4%
residual activity (STK10 (human)): 72.6%
residual activity (STK11 (human)): 58.4%
residual activity (STK3 (human)): 5.45%
residual activity (SYK (human)): 79%
residual activity (TAOK3 (human)): 50.3%
residual activity (TBK1 (human)): 24%
residual activity (TGFBR1 (human)): 102%
residual activity (TGFBR2 (human)): 58.2%
residual activity (TSSK2 (human)): 92.5%
residual activity (TYRO3 (human)): 90.3%
